Reference: patent publication US4473587A, “Prostaglandin E1 analogues” (Ono Pharmaceutical Co., Ltd., priority 1982, dated 1984)
Read-outs that look alike come from different tables or passages of the source. Blank lines part the entries; values can stand above or below the compound they belong to.

Assays:
[1] = system: carbon tetrachloride-induced liver damage; assay: carbon tetrachloride-induced liver damage in rats (plasma GOT, GPT); type: in vivo, rat; settings: for cytoprotective activity compared with known compound H / cytoprotective activity: in words; for cytoprotective activity compared with known compound H: comparison with compound H; for cytoprotective activity: from the Table; for inhibition in vivo at 0.02 mg/kg / inhibition in vivo at 0.1 mg/kg / inhibition in vivo at 0.05 mg/kg / inhibition in vivo at 0.2 mg/kg: po, CCl4, rat, vs controls; for inhibition in vivo at 0.02 mg/kg: 20 μg/kg p.o.; for inhibition in vivo at 0.1 mg/kg: 100 μg/kg p.o.; for inhibition in vivo at 0.05 mg/kg: 50 μg/kg p.o.; for inhibition in vivo at 0.2 mg/kg: 200 μg/kg p.o.
Excerpt: In the following Table, the pharmacological activities, i.e. carbon tetrachloride-induced cytodamage inhibition as an example of cytoprotective activity, and hypotensive and platelet aggregation inhibition activities as examples of side-effects, of known compounds are compared with those of compounds A, B and C of the invention.
^(1) The method used was that described in the specification of U.S.

[2] = system: D(+)-galactosamine-induced liver damage; assay: D(+)-galactosamine-induced liver damage in rats; type: in vivo; settings: D(+)-galactosamine 375 mg/kg i.p. twice, rat, 100 μg/kg oral five times, blood at 48 hrs, vs control
uterine contraction = uterine contraction in the pregnant female rat; type: in vivo; settings: 20th day of gestation, i.v., doses of 50 and 20 μg/kg (compound A and compound B)
mice = assay: acute toxicity in mice by oral administration; type: in vivo, mouse; settings: 10 mg/kg animal body weight, 5 cases
Excerpt: Therefore, the compounds of the present invention may be considered to be sufficiently safe and suitable for medical use.

[3] = system: adenosine diphosphate-induced blood platelet aggregation; assay: inhibition of adenosine diphosphate-induced blood platelet aggregation in platelet rich plasma of rats; type: cell-based, rat; settings: for platelet aggregation inhibiting side-effect: in words, in comparison with known compounds D, E, F and G; for Platelet aggregation inhibition (E1 = 1): relative to PGE1 taken as 1.00, ADP-induced, platelet rich plasma of rats
Excerpt: (§1) In the Table, the values of side-effects are indicated relative to the activity of PGE1, taken as 1.00.
^(3) Inhibition of adenosine diphosphateinduced blood platelet
aggregation in plateletrich plasma of rats.

blood pressure = assay: hypotensive effect in the allobarbital anesthetized dog; type: in vivo; settings: for hypotensive side-effect: in words, in comparison with known compounds D, E, F and G; for Hypotensive effect (E1 = 1): relative to PGE1 taken as 1.00, allobarbital anesthetised dog; for Hypotensive effect (E1 = 1) / duration of fall in blood pressure / fall in blood pressure: i.v.; for duration of fall in blood pressure / fall in blood pressure: allobarbital anesthetized dog
Method: (ii) by intravenous administration to the allobarbital anesthetized dog, compound B produced falls in blood pressure of 13 and 31 mmHg lasting 17 and 37 minutes at the doses of 1 and 2 μg/kg animal body weight, respectively.
as §1
^(2) By intravenous administration to the allobarbital anesthetised

[4] = system: α-naphthylisothiocyanate-induced liver damage; assay: α-naphthylisothiocyanate-induced liver damage in rats; type: in vivo; settings: rat, 100 μg/kg oral, vs controls
[5] = read-out: inhibition of plasma GOT (glutamic oxaloacetic transaminase)
[6] = read-out: inhibition of plasma GPT (glutamic pyruvic transaminase)

SMILES: CCCCC1CC[C@H]([C@H](O)/C=C/[C@H]2[C@H](O)CC(=O)[C@@H]2CC(=O)CCCCCO)C1 (stereo partly drawn) [A, 2-decarboxy-2-hydroxymethyl-6-oxo-15-(3(RS)-butyl-1(S)-cyclopentyl)-16,17,18,19,20-pentanor-PGE1]
cytoprotective activity compared with known compound H [1]: superior in their cytoprotective activity to the known compound H
cytoprotective activity [1]: possess cytoprotective activity
inhibition in vivo at 0.02 mg/kg [1, 5]: 56.6%
inhibition in vivo at 0.02 mg/kg [1, 6]: 58.8%
inhibition in vivo at 0.1 mg/kg [1, 5]: 71.8%
inhibition in vivo at 0.1 mg/kg [1, 6]: 53.6%
inhibition of plasma GOT [2]: 20.4%
inhibition of plasma GPT [2]: 45.1%
inhibition of plasma bilirubin [2]: 36.2%
stimulation of uterine contraction (uterine contraction): stimulated uterine contraction
deaths in acute toxicity test (mice): no deaths in 5 cases
platelet aggregation inhibiting side-effect [3]: very weak side-effects
Platelet aggregation inhibition (E1 = 1) [3]: 0.05
hypotensive side-effect (blood pressure): very weak side-effects
Hypotensive effect (E1 = 1) (blood pressure): 1.2

SMILES: CCCC1CC[C@H]([C@H](O)/C=C/[C@H]2[C@H](O)CC(=O)[C@@H]2CC(=O)CCCCCO)C1 (stereo partly drawn) [B, 2-decarboxy-2-hydroxymethyl-6-oxo-15-(3(RS)-propyl-1(S)-cyclopentyl)-16,17,18,19,20-pentanor-PGE1]
cytoprotective activity compared with known compound H [1]: superior in their cytoprotective activity to the known compound H
cytoprotective activity [1]: possess cytoprotective activity
inhibition in vivo at 0.05 mg/kg [1, 5]: 29.6%
inhibition in vivo at 0.05 mg/kg [1, 6]: 21.5%
inhibition of plasma GOT [2]: 40.0%
inhibition of plasma GPT [2]: 50.3%
inhibition of plasma bilirubin [2]: 44.2%
stimulation of uterine contraction (uterine contraction): stimulated uterine contraction
inhibition of plasma GOT [4]: 52.6%
inhibition of plasma GPT [4]: 62.5%
inhibition of plasma bilirubin [4]: 30.3%
deaths in acute toxicity test (mice): two deaths in 5 cases
platelet aggregation inhibiting side-effect [3]: very weak side-effects
Platelet aggregation inhibition (E1 = 1) [3]: 0.05
duration of fall in blood pressure (blood pressure; 1 μg/kg): 17 min
fall in blood pressure (blood pressure; 1 μg/kg): 13 mmHg
duration of fall in blood pressure (blood pressure; 2 μg/kg): 37 min
fall in blood pressure (blood pressure; 2 μg/kg): 31 mmHg
hypotensive side-effect (blood pressure): very weak side-effects
Hypotensive effect (E1 = 1) (blood pressure): 0.35

SMILES: O=C(CCCCCO)C[C@H]1C(=O)C[C@@H](O)[C@@H]1/C=C/[C@@H](O)C1CCCC1 [C, 2-decarboxy-2-hydroxymethyl-6-oxo-15-cyclopentyl-16,17,18,19,20-pentanor-PGE1]
cytoprotective activity compared with known compound H [1]: superior in their cytoprotective activity to the known compound H
cytoprotective activity [1]: possess cytoprotective activity
inhibition in vivo at 0.2 mg/kg [1, 5]: 7.9%
inhibition in vivo at 0.2 mg/kg [1, 6]: 29.9%
deaths in acute toxicity test (mice): no deaths in 5 cases
platelet aggregation inhibiting side-effect [3]: very weak side-effects
hypotensive side-effect (blood pressure): very weak side-effects
Hypotensive effect (E1 = 1) (blood pressure): 0.77

SMILES: CCCCC[C@H](O)/C=C/[C@H]1[C@H](O)CC(=O)[C@@H]1CC(=O)CCCCCO [H, 2Decarboxy-2-hydroxymethyl-6-oxo-PGE1, reference compound]
inhibition in vivo at 0.1 mg/kg [1, 5]: 3.4%
inhibition in vivo at 0.1 mg/kg [1, 6]: -0.07%

Continued, in another order:

Platelet aggregation inhibition (E1 = 1) [3]: 48.4
SMILES: CCCC1CCC([C@H](O)/C=C/[C@H]2[C@H](O)CC(=O)[C@@H]2CC(=O)CCCCC(=O)O)C1 (stereo partly shown) [D, 6Oxo-15-(3RS-propyl-1RS-cyclopentyl)-16,17,18,19,20-pentanor-PGE1, reference compound]
cytoprotective activity [1]: possess cytoprotective activity
Hypotensive effect (E1 = 1) (blood pressure): 13

Platelet aggregation inhibition (E1 = 1) [3]: 58.6
SMILES: CCCC1CCC([C@H](O)/C=C/[C@H]2[C@H](O)CC(=O)[C@@H]2CC(=O)CCCCC(=O)OC)C1 (stereo partly shown) [E, 6Oxo-15-(3RS-propyl-1RS-cyclopentyl)-16,17,18,19,20-pentanor-PGE1 methyl ester, reference compound]
cytoprotective activity [1]: possess cytoprotective activity
inhibition in vivo at 0.1 mg/kg [1, 5]: 77%
Hypotensive effect (E1 = 1) (blood pressure): 25.7

Platelet aggregation inhibition (E1 = 1) [3]: 51.0
SMILES: CCCCC1CCC([C@H](O)/C=C/[C@H]2[C@H](O)CC(=O)[C@@H]2CC(=O)CCCCC(=O)OC)C1 (stereo partly shown) [F, 6Oxo-15-(3RS-butyl-1RS-cyclopentyl)-16,17,18,19,20-pentanor-PGE1 methyl ester, reference compound]
cytoprotective activity [1]: possess cytoprotective activity
Hypotensive effect (E1 = 1) (blood pressure): 12.6

Platelet aggregation inhibition (E1 = 1) [3]: 19.7
SMILES: CCCC1CCC([C@H](O)/C=C/[C@H]2[C@H](O)CC(=O)[C@@H]2CC(=O)CCCCC(=O)OC)CC1 (stereo partly shown) [G, 6Oxo-15-(4RS-propyl-1RS-cyclohexyl)-16,17,18,19,20-pentanor-PGE1 methyl ester, reference compound]
cytoprotective activity [1]: possess cytoprotective activity
Hypotensive effect (E1 = 1) (blood pressure): 6.2
